From patent US9040717B2, “Pyrazole-amide compounds and pharmaceutical use thereof” (JAPAN TOBACCO INC., priority 2013, dated 2015) come the findings set out here.

Broadly, the IC50 is the point on the concentration scale where inhibition reaches its midpoint. Low readings indicate inhibition by little substance, high ones a need for much substance.

Experiment [1] relates to Zucker Diabetic Fatty rats. Put plainly: Effect of repeated administration on HbA1c in ZDF rats. The experiment is classed as in vivo, rat. The settings on record: 1 mg/kg oral once daily, day 14 of administration, mean ± S.D. (n = 10), *p < 0.05 vs. vehicle group. The method, then: Zucker Diabetic Fatty rats (male, 7-week-old, CHARLES RIVER LABORATORIES JAPAN INC.), an animal model for type 2 diabetes, given a purified diet (5.9% fat diet, Oriental Yeast Co., Ltd.) were allocated to the vehicle group and the test compound groups so that no bias occurred in the plasma glucose and insulin levels, HbAlc levels and body weights. Repeated oral doses of the test compound (1 mg/kg/5 mL) were administered to the rats once daily at 3 hr before the dark period. A 0.5% aqueous methylcellulose solution was orally administered in the same manner to the rats of the vehicle group. On day 14 of administration, blood samples were collected from the tail vein and HbAlc level (%) was measured. Statistical analysis was performed by Dunnett's test. Values of p<0.05 were cosidered statistically significant.

For experiment [2], the target named is human PDHK2 (hPDHK2) (Homo sapiens (Human), UniProt Q15119). Put plainly: Inhibitory action of PDHK2 activity in vitro (residual PDH activity after kinase reaction). The experiment is classed as biochemical. Here is the method: (§1) The inhibitory action of PDHK activity was assessed indirectly by measuring the residual PDH activity after kinase reaction in the presence of a test compound.
In the case of human PDHK2 (hPDHK2, Genbank Accession No. BC040478.1), modified hPDHK2 cDNA wherein FLAG-Tag sequence was added to the N terminus of hPDHK2 cDNA clone (pReceiver-M01/PDK2-GeneCopoeia) was prepared by PCR and cloned into a vector (pET17b-Novagen). The recombinant construct was transformed into Escherichia coli (DH5α-TOYOBO). The recombinant clones were identified, and plasmid DNA was isolated and subjected to the DNA sequence analysis. One clone which had the expected nucleic acid sequence was selected for expression work.
For expression of hPDHK2 activity, Escherichia coli strain BL21(DE3) cells (Novagen) were transformed with the pET17b vector containing modified hPDHK2 cDNA. The Escherichia coli were grown to an optical density 0.6 ([…]) at 30° C. Protein expression was induced by the addition of 500 μmol/L isopropyl-β-thiogalactopyranoside. The Escherichia coli were cultured at 30° C. for 5 hr and harvested by centrifugation. Resuspension of the Escherichia coli paste was disrupted by a microfluidizer. FLAG-Tagged protein was purified using FLAG affinity gel. […]
0.05 U/mL PDH and 0.8 μg/mL hPDHK2 were mixed in a buffer (50 mmol/L 3-morpholinopropanesulfonic acid (pH 7.0), 20 mmol/L dipotassium hydrogen phosphate, 60 mmol/L potassium chloride, 2 mmol/L magnesium chloride, 0.4 mmol/L EDTA, and 0.2% Pluronic F-68, 2 mmol/L dithiothreitol), and the mixture was incubated at 4° C. overnight to obtain a PDH/hPDHK2 complex. […] The mixture was incubated at room temperature for 90 min, and the residual PDH activity was measured. The absorbance at 340 nm before and after PDH reaction was measured using a microplate reader to detect NADH produced by the PDH reaction. The hPDHK2 inhibition rate (%) of the test compound was calculated from the formula [{(PDH activity of test compound−PDH activity of control)/PDH activity of blank−PDH activity of control)}×100].

The target in experiment [3] is human PDHK1 (hPDHK1) (Homo sapiens (Human), UniProt Q15118). In words: Inhibitory action of PDHK1 activity in vitro (residual PDH activity after kinase reaction). Type of experiment: biochemical. Here is the method: as §1
Chain of human PDHK1 (hPDHK1) (Q15118 29-436): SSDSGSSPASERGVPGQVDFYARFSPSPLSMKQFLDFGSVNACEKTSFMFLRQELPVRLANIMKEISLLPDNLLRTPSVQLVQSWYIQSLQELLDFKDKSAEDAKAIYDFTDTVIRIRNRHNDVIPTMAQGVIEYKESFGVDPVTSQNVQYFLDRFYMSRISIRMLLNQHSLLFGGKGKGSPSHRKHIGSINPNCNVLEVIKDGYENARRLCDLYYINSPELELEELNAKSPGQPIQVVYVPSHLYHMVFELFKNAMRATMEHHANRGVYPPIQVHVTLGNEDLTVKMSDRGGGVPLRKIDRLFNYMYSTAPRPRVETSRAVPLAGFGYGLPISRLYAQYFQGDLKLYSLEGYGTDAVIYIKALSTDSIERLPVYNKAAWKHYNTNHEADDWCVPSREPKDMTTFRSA
The recombinant construct was transformed into Escherichia coli (DH5α-TOYOBO). The recombinant clones were identified, and plasmid DNA was isolated and subjected to the DNA sequence analysis. One clone which had the expected nucleic acid sequence was selected for expression work.
The Escherichia coli were grown to an optical density 0.6 ([…]) at 30° C. Protein expression was induced by the addition of 500 μmol/L isopropyl-β-thiogalactopyranoside. The Escherichia coli were cultured at 30° C. for 5 hr and harvested by centrifugation. Resuspension of the Escherichia coli paste was disrupted by a microfluidizer.
The eluted fractions containing FLAG-Tagged protein were pooled, dialyzed against 20 mmol/L HEPES-NaOH, 150 mmol/L sodium chloride, 0.5 mmol/L ethylenediamine tetraacetic acid (EDTA), 1% ethylene glycol, and 0.1% Pluronic F-68 (pH 8.0), and preserved at −80° C.
The mixture was incubated at room temperature for 90 min, and the residual PDH activity was measured.
The absorbance at 340 nm before and after PDH reaction was measured using a microplate reader to detect NADH produced by the PDH reaction.

With `CC(C)(O)CCOc1cc(-c2cnn(C(C)(C)C(N)=O)c2)c2c(c1)[C@@](O)(C(F)(F)F)c1ccccc1-2` [Compound (2), 2-{4-[(9R)-9-hydroxy-2-(3-hydroxy-3-methylbutyloxy)-9-(trifluoromethyl)-9H-fluoren-4-yl]-1H-pyrazol-1-yl}-2-methylpropanamide], the “HbA1c (%)” value in experiment [1] is on record as 3.2 ± 0.1* %. For the same compound, the IC50 in experiment [2] was 4.6 nM; in experiment [3], 4.7 nM.

Turning to `CC(C)(O)CCCOc1cc(-c2cnn(C(C)(C)C(N)=O)c2)c2c(c1)[C@@](O)(C(F)(F)F)c1ccccc1-2` [Compound (3), 2-{4-[(9R)-9-hydroxy-2-(4-hydroxy-4-methylpentyloxy)-9-(trifluoromethyl)-9H-fluoren-4-yl]-1H-pyrazol-1-yl}-2-methylpropanamide], the “HbA1c (%)” value in experiment [1] is 3.4 ± 0.1* %. For the same compound, the IC50 came to 4.2 nM in experiment [2] and 3.5 nM in experiment [3].
